In assay [1] the test system is Monoclonal antibody (mAb). The assay can be described thus: Binding affinity against human monoclonal antibody (mAb)-1B3.
Assay [2] relates to Monoclonal antibody (mAb). Kind of assay: Binding affinity against human monoclonal antibody (mAb)-5C2.
Assay [3] has as its system Monoclonal antibody (mAb). The assay can be described thus: Binding affinity against human monoclonal antibody (mAb)-7F2.
Assay [4] deals with Monoclonal antibody (mAb). Kind of assay: Binding affinity against human monoclonal antibody (mAb)-11E6.
The subject of assay [5] is Monoclonal antibody (mAb). The assay can be described thus: Binding affinity against murine monoclonal antibody (mAb)-40-50.

Calls of active or inactive are those of the source. The calls are words filed in the database; no cut-off is given here.

Take `CC1CC(O[C@H]2CC[C@@]3(C)[C@H](CC[C@@H]4[C@@H]3CC[C@]3(C)[C@@H](C5=CC(=O)OC5)CC[C@]43O)C2)CC(O)C1O` (stereo partly specified): the IC50 ratio was 36 in assay [1], 47 in assay [2], 29 in assay [3] and 25 in assay [4].

In turn, `C[C@H]1O[C@@H](O[C@H]2[C@@H](O)C[C@H](O[C@H]3[C@@H](O)C[C@@H](O[C@H]4CC[C@@]5(C)[C@H](CC[C@@H]6[C@@H]5C[C@@H](O)[C@]5(C)[C@@H](C7=CC(=O)OC7)CC[C@]65O)C4)O[C@@H]3C)O[C@@H]2C)C[C@H](O)[C@@H]1O` had a Relative Ki in assay [5] of 280.

`CC(=O)O[C@]1(C(C)=O)CC[C@H]2[C@@H]3C=C(Cl)C4=CC(=O)CC[C@]4(C)[C@H]3CC[C@@]21C`: the IC50 ratio result in assay [1] and in assay [3] was “No inhibition” in each case.

Turning to `CC(=O)O[C@H]1[C@H]2O[C@]23[C@@H]2CC[C@@H]4C[C@@H](O)CC[C@]4(C)[C@H]2CC[C@]3(C)[C@H]1c1ccc(=O)oc1`, the IC50 ratio amounted to 98000 in assay [1], 570 in assay [2], 1700 in assay [3] and 800 in assay [4].

Take `C[C@H]1O[C@@H](O[C@H]2[C@@H](O)C[C@H](O[C@H]3[C@@H](O)C[C@H](O[C@H]4CC[C@@]5(C)[C@H](CC[C@@H]6[C@@H]5CC[C@]5(C)[C@H](C7COC(=O)C7)CC[C@]65O)C4)O[C@@H]3C)O[C@@H]2C)C[C@H](O)[C@@H]1O` (stereo partly specified): the IC50 ratio in assay [1] was 340; in assay [3], 1800.

With `C[C@]12CC[C@H](O)CC1=CC[C@@H]1[C@@H]2CC[C@]2(C)C(=O)CC[C@@H]12`, the IC50 ratio entry in assay [1] is “No inhibition”.

As for `C[C@H]1O[C@@H](O[C@H]2[C@@H](O)C[C@H](O[C@H]3CC[C@@]4(C)[C@H](CC[C@@H]5[C@@H]4C[C@@H](O)[C@]4(C)[C@@H](C6=CC(=O)OC6)CC[C@]54O)C3)O[C@@H]2C)C[C@H](O)[C@@H]1O`, the IC50 ratio in assay [1] came out at 1.6; in assay [2] it was 1.3; in assay [3] it was 1; in assay [4], 0.9.

As for `C[C@]12CCC(=O)C=C1CC[C@@H]1[C@@H]2[C@@H](O)C[C@]2(C=O)[C@@H](C(=O)CO)CC[C@@H]12`, the IC50 ratio entry in assay [1] was “inactive”. The IC50 ratio in assay [2] is 550; in assay [3], 540; in assay [4], 760.

Take `C[C@]12C=CC(=O)C=C1CC[C@@H]1[C@@H]2C(=O)C[C@@]2(C)[C@H]1CC[C@]2(O)C(=O)CO`: the IC50 ratio result in assay [1] was “No inhibition”; in assay [2], 3400; in assay [3] it was “No inhibition”; in assay [4], “No inhibition”.

In the case of `C[C@]12CC[C@H](O)C[C@H]1CC[C@@H]1[C@@H]2C[C@@H](O)[C@]2(C)[C@@H]([C@@H]3COC(=O)C3)CC[C@]12O`, the Relative Ki in assay [5] stood at 300.

As for `CC(=O)O[C@]1(C(C)=O)CC[C@H]2[C@@H]3CCC4=C/C(=N/OCC(=O)O)CC[C@]4(C)[C@H]3CC[C@@]21C`, the IC50 ratio result in assay [1] and in assay [3] was “No inhibition” each time.

Consider `CC(=O)O[C@H]1C[C@H](O[C@H]2[C@@H](O)C[C@H](O[C@H]3[C@@H](O)C[C@H](O[C@H]4CC[C@@]5(C)[C@H](CC[C@@H]6[C@@H]5CC[C@]5(C)[C@@H](C7=CC(=O)OC7)CC[C@]65O)C4)O[C@@H]3C)O[C@@H]2C)O[C@H](C)[C@H]1O`, for which the IC50 ratio in assay [1] was 3.9; in assay [2], 48; in assay [3] it was 25; in assay [4] it was 20.

Take `C[C@]12CCC(=O)C=C1CC[C@@H]1[C@@H]2C(=O)C[C@@]2(C)[C@H]1CC[C@]2(O)C(=O)CO`: the IC50 ratio result in assay [1], in assay [2], in assay [3] and in assay [4] was “No inhibition” in each case.

`CO[C@H]1C(O)[C@H](O[C@H]2CC[C@@]3(C)[C@H](CC[C@@H]4[C@@H]3CC[C@]3(C)[C@@H](C5=CC(=O)OC5)CC[C@]43O)C2)O[C@@H](C)[C@@H]1O[C@@H]1O[C@H](CO[C@@H]2O[C@H](CO)[C@@H](O)[C@H](O)[C@H]2O)[C@@H](O)[C@H](O)[C@H]1O` (stereo partly specified): the IC50 ratio in assay [1] is 97; in assay [2], 7.6; in assay [3], 8.6; in assay [4], 18.

Molecule `CC(=O)O[C@@H]1C[C@H]2[C@@H](CC[C@@H]3C[C@@H](O[C@H]4C[C@H](O)[C@H](O[C@H]5C[C@H](O)[C@H](O[C@H]6C[C@H](O)[C@H](O)[C@@H](C)O6)[C@@H](C)O5)[C@@H](C)O4)CC[C@@]32C)[C@@]2(O)CCC(C3=CC(=O)OC3)[C@@]12C` (stereo partly specified) gave a Relative Ki in assay [5] of 0.5.

On to `C[C@@H]1O[C@@H](O[C@@H]2C=C3CC[C@@H]4[C@H](CC[C@]5(C)[C@@H](c6ccc(=O)oc6)CC[C@]45O)[C@@]3(C)CC2)[C@H](O)[C@H](O)[C@H]1O`, for which the IC50 ratio came to 670 in assay [1], 400 in assay [2], 69 in assay [3] and 800 in assay [4].

In assay [5], `C[C@H]1O[C@@H](O[C@H]2[C@@H](O)C[C@H](O[C@H]3[C@@H](O)C[C@@H](O[C@H]4CC[C@@]5(C)[C@H](CC[C@@H]6[C@@H]5C[C@@H](O)[C@]5(C)[C@@H](C7=CC(=O)OC7)[C@@H](O)C[C@]65O)C4)O[C@@H]3C)O[C@@H]2C)C[C@H](O)[C@@H]1O` had a Relative Ki of 33.

In turn, `CC(=O)O[C@H]1C[C@]2(O)[C@@H]3CC[C@@H]4C[C@@H](O)CC[C@]4(C)[C@H]3CC[C@]2(C)[C@H]1C1=CC(=O)OC1` came in with a Relative Ki in assay [5] of 8600.

For `CC(=O)O[C@H]1C[C@H](O[C@H]2[C@@H](O)C[C@H](O[C@H]3[C@@H](O)C[C@H](O[C@H]4CC[C@@]5(C)[C@H](CC[C@@H]6[C@@H]5C[C@@H](O)[C@]5(C)[C@@H](C7=CC(=O)OC7)CC[C@]65O)C4)O[C@@H]3C)O[C@@H]2C)O[C@H](C)[C@H]1O[C@@H]1O[C@H](CO)[C@@H](O)[C@H](O)[C@H]1O`, the IC50 ratio in assay [1] is 1.6; in assay [2], 1.1; in assay [3], 1.4; in assay [4] it was 1.6.

As to `C[C@]12CC[C@@H]3c4ccc(O)cc4CC[C@H]3[C@@H]1CC[C@@H]2O`, the IC50 ratio result in assay [1], in assay [2], in assay [3] and in assay [4] was “inactive” in each case.

Consider `C[C@H]1O[C@@H](O[C@@H]2CC[C@@]3(O)CC[C@@H]4[C@H](CC[C@]5(C)[C@@H](C6=CC(=O)OC6)CC[C@]45O)[C@@]3(C=O)C2)C[C@H](O)[C@@H]1O`, for which the IC50 ratio in assay [1] was 6200; in assay [2], 3000; in assay [3], 2100; in assay [4] it was 2500.

Regarding `C[C@]12CC[C@@H](O)C[C@H]1CC[C@@H]1[C@@H]2C[C@@H](O)[C@]2(C)[C@@H](C3=CC(=O)OC3)CCC12O` (stereo partly specified), in assay [5], the Relative Ki turned out to be 12.

Consider `C[C@]12CC[C@H](O)CC1CC[C@@H]1[C@@H]2CC[C@]2(C)[C@@H](C3=CC(=O)OC3)CC[C@]12O` (single isomer, unassigned), for which the IC50 ratio in assay [1] worked out at 4900; in assay [2], 3.6; in assay [3] it was 4.1; in assay [4], 6.7.

Turning to `C[C@]12CC[C@H](O)C[C@H]1CC[C@@H]1[C@@H]2CC[C@]2(C)[C@@H](c3ccc(=O)oc3)CC[C@]12O`, the IC50 ratio in assay [1] was determined as 6700; in assay [2], 250; in assay [3], 550; in assay [4] it was 260.

In the case of `CC(=O)OCC(=O)[C@@]1(O)CC[C@H]2[C@@H]3CCC4=CC(=O)C=C[C@]4(C)[C@H]3[C@@H](O)C[C@@]21C`, the IC50 ratio result in assay [1] is “No inhibition”; in assay [3], 12000.

`C[C@]12CCC(=O)C=C1CC[C@@H]1[C@@H]2[C@@H](O)C[C@@]2(C)[C@H]1CC[C@]2(O)C(=O)CO`: the IC50 ratio result in assay [1] was “No inhibition”; in assay [2], 650; in assay [3], 1100; in assay [4], 3700.

As for `C[C@]12C=CC(=O)C=C1CC[C@@H]1[C@@H]2[C@@H](O)C[C@@]2(C)[C@H]1CC[C@]2(O)C(=O)COC(=O)CCC(=O)O`, the IC50 ratio in assay [1] worked out at 160000; in assay [3], 3400.

`C[C@]12CC[C@@H](O)C[C@@H]1CC[C@@H]1[C@@H]2CC[C@]2(C)C(=O)CC[C@@H]12`: the IC50 ratio result in assay [1] and in assay [2] was “inactive” each time. For the same molecule, the results for the IC50 ratio in assay [3] and in assay [4] were 1300 and 1800, respectively.

Consider `C[C@H]1O[C@@H](O[C@H]2[C@@H](O)C[C@H](O[C@H]3CC[C@@]4(C)[C@H](CC[C@@H]5[C@@H]4CC[C@]4(C)[C@@H](C6=CC(=O)OC6)CC[C@]54O)C3)O[C@@H]2C)C[C@H](O)[C@@H]1O`, for which the IC50 ratio in assay [1] is 4.9; in assay [2], 14; in assay [3], 14; in assay [4], 11.

As for `CC(C)CCC[C@@H](C)[C@H]1CC[C@H]2[C@@H]3CC=C4C[C@@H](O)CC[C@]4(C)[C@H]3CC[C@]12C`, the IC50 ratio entry in assay [1], in assay [2], in assay [3] and in assay [4] was “inactive” in each case.

`C[C@]12C[C@H](O)[C@H]3[C@@H](CCC4=CC(=O)CC[C@@]43C)[C@@H]1CC[C@@H]2C(=O)CO`: the IC50 ratio in assay [1] came to 14000; in assay [2] it was 420; in assay [3], 390; in assay [4] it was 970.

Regarding `CC(=O)O[C@H]1C[C@H](O[C@H]2CC[C@@]3(C)[C@H](CC[C@@H]4[C@@H]3C[C@@H](O)[C@]3(C)C(C5=CC(=O)OC5)CC[C@]43O)C2)O[C@H](C)[C@H]1O[C@H]1C[C@H](O)[C@H](O[C@H]2C[C@H](O)[C@H](O)[C@@H](C)O2)[C@@H](C)O1` (stereo partly specified), the IC50 ratio in assay [1] stood at 0.9; in assay [2] it was 0.9; in assay [3], 1; in assay [4] it was 1.5.

On to `C[C@]12CC[C@H]3[C@@H](CCC4=CC(=O)CC[C@@]43C)[C@@H]1CC[C@@H]2O`, for which the IC50 ratio entry in assay [1] was “inactive”. Besides, the IC50 ratio in assay [2] amounted to 120; in assay [3], 100; in assay [4], 110.

(Values after ChEMBL document CHEMBL1135516, “Three-dimensional quantitative structure-activity relationship analysis of ligand binding to human sequence antidigoxin monoclonal antibodies using comparative molecular field analysis” (J Med Chem, 2002).)
